Read-outs that look alike come from different tables or passages of the source.
Columns and labels:
[1] = system: ovary-extracted mice (oophorectomized osteoporosis); assay: Animal experiment: intravenous injection to ovary-extracted mice on low-calcium feed, dry weight of femurs and tibia microscopy; format: in vivo, female ddY mice; settings: for Bone content compared with the control groups (ovaries extracted, PBS): administered in place of trehalose, data not shown; for Dry weight of extracted tibia / Dry weight of extracted tibia / Body weight: tail vein, 5 ml/kg body weight/shot, once daily, five times a week
Experimental: An injection containing 10 w/w % trehalose, obtained by the later described Example 7, was diluted with a phosphate buffered saline, which had been filtered with a membrane filter having a pore size of 0.22 μm (hereinafter abbreviated as “PBS”) into a 0.1 w/w % or 1 w/w % trehalose solution. These solutions and the above injection were used for test samples. According to what is done conventionally, female ddY mice, 4-week-old, which had been grouped into 34 heads/group based on their body weight, were anesthetized with sodium pentobarbital, and extracted their ovaries. From the next day, the mice were injected from their tail veins with any one of the test samples at a dose of 5 ml/kg body weight/shot, once every day and five times a week. […] The feed used was a low-calcium feed for ease of making the difference of the bone content.
In parallel, the following control groups were provided and treated similarly as the group with trehalose: As control 1, a group in which mice were administered with the same amount of PBS as the test samples in place of them; and as control 2, a group in which mice, that were received with a laparotomy pseudo-operation and were not extracted their ovaries, were administered with the same amount of PBS as the test samples in place of them. Some of the mice administered with trehalose using one w/w t trehalose solution, and the mice in controls 1 and 2 as non-trehalose administration groups were extracted their tibias, followed by observing the tibias microscopically. The specimens for microscopic observation were prepared in the usual manner by immobilizing the extracted tibias with formalin solution, washed with water, delimed, split along with the long axis, and treated with protease K to remove bone marrow cells. The specimens of tibias were observed by a relatively-low vacuum electron-microscope under 24 magnifications, and photographed. The data are respectively in FIGS. 4 to 6. In these figures, white parts are the trabecula of cancellous bone. The osteoporosis occurred in mice extracted their ovaries is called oophorectomized osteoporosis and is an excellent model for postmenopausal osteoporosis as a geriatric osteoporosis.

[2] = system: ovary-extracted mice (oophorectomized osteoporosis); assay: Animal experiment: oral administration to ovary-extracted mice on low-calcium feed, dry weight of femurs and tibia microscopy; format: in vivo, female ddY mice
Source text: According to what is done conventionally, female ddY mice, 4-week-old, which had been grouped into 34 heads/group based on their body weight, were anesthetized with sodium pentobarbital, and extracted their ovaries. From the next day, the mice were orally administered with “TREHAOSE®”, a crystalline trehalose powder containing at least 98% trehalose, d.s.b., commercialized by Hayashibara Shoji, Inc, Okayama, Japan, which had been dissolved in distilled water, at a dose of 0.01, 0.1 or 1 g/kg body weight per shot once every day, five shots in a week. […] The feed used was a low-calcium feed for ease of making the difference of the bone content.
In parallel, the following control groups were provided and treated similarly as the group with trehalose: As control 1, a group in which mice were administered with the same amount of distilled water as the aqueous trehalose solution in place of the trehalose solution; as control 2, a group in which mice were administered with estradiol, as a therapeutic agent for osteoporosis, dissolved in the same amount of distilled water as the aqueous trehalose solution in place of the trehalose solution, at a dose of one mg/kg body weight/shot, two times a week; and as control 3, a group in which mice, which were received with a laparotomy pseudo-operation and not extracted their ovaries, were administered with the same amount of distilled water as the aqueous trehalose solution in place of the trehalose solution. Some of the mice administered with trehalose at a dose of 0.1 g/kg body weight/shot, and the mice in controls 1 and 3 as groups with no trehalose were extracted their tibias, followed by observing the tibias microscopically. The specimens for microscopic observation were prepared in the usual manner by immobilizing the extracted tibias with formalin solution, washed with water, delimed, split along with the long axis, and treated with protease K to remove bone marrow cells. The specimens of tibias were observed by a relatively-low vacuum electron-microscope under 24 magnifications, and photographed. The data are respectively in FIGS. 1 to 3. In these figures, white parts are the trabecula of cancellous bone. The osteoporosis occurred in the mice extracted their ovaries is called oophorectomized osteoporosis and is an excellent model for postmenopausal osteoporosis as a geriatric osteoporosis.

ddY mice = settings: mouse, in vivo
Experimental: An adequate amount of “TREHAOSE®”, a crystalline trehalose powder having at least 98% of trehalose, d.s.b., commercialized by Hayashibara Shoji, Inc., Okayama, Japan, was dissolved in physiological saline containing 5 w/w % gum arabic, and the solution was sterilized in the usual manner. The sterilized solution was injected intraperitoneally or orally administered using a gastric tube to ddY mice, 20-25 g weight, in a group of 10 heads, followed by the observation for seven days. As a result, independently of the administration routes, no mouse died even administered with the maximum dose, 15 g/kg body weight.

osteoclasts [3] = assay: Osteoclast count in cultured bone marrow cells from tibias of intravenously treated mice (tartaric-acid-resistant acid phosphatase staining); format: cell-based, ddY mice; settings: bone marrow cells from mice given 10% trehalose solution, about 5 ml/kg body weight/shot; control 1 at least 3-times
Experimental: Similarly as above, the tibias were extracted from some mice, excluding the aforesaid mice which had been extracted their tibias, in the group with 10% trehalose solution at a dose of about 5 ml/kg body weight/shot, and in the groups 1 and 3. From each tibia, bone marrow cells were collected in the usual manner and suspended in α-MEM medium, supplemented with 10 v/v % fetal calf serum, to give a cell density of 1.5×10^6 cells/ml. The resulting cell suspensions were respectively placed in 24-well plates in a volume of 0.5 ml/well. To each well was added 0.25 ml/well of a cell suspension with a cell density of 4×10^4 cells/ml of osteoblast-like cells suspended in a fresh preparation of the same medium as above. A solution of 4×10^9M 1α, 25-dihydroxy vitamin D3, dissolved in a fresh preparation of the same medium as above, was added to each well in a volume of 0.25 ml/well. The resulting cell suspension mixtures were incubated in a 5 v/v % CO2 incubator at 37° C. for six days while replacing the media with a fresh preparation of α-MEM medium containing 1×10^9M 1α, 25-dihydroxy vitamin D3 and 10 v/v % fetal calf serum.
After completion of the culture, the supernatants were removed, and the cells in each well were fixed with formalin, and treated in the usual manner with “NAPHTHOL AS-MS PHOSPHATE” and “RED VIOLET LB”, which are commercialized by Sigma Chemical Company, ST. […]

osteoclasts [4] = assay: Osteoclast count in cultured bone marrow cells from tibias of orally treated mice (tartaric-acid-resistant acid phosphatase staining); format: cell-based, ddY mice; settings: bone marrow cells from mice given oral 0.1 g/kg body weight/shot; control 1 at least 3-times
Source text: Similarly as above, the tibias were extracted from some mice, excluding the aforesaid mice which had been extracted their tibias, in the group with trehalose at a dose of 0.1 g/kg body weight/shot, and in the groups 1 and 3. From each tibia, bone marrow cells were collected in the usual manner and suspended in α-MEM medium, supplemented with 10 v/v % fetal calf serum, to give a cell density of 1.5×10^6 cells/ml. The resulting cell suspensions were respectively placed in 24-well plates in a volume of 0.5 ml/well. To each well was added 0.25 ml/well of a cell suspension with a cell density of 4×10^4 cells/ml of osteoblast-like cells suspended in a fresh preparation of the same medium as above. A solution of 4×10^9M 1α, 25-dihydroxy vitamin D3, dissolved in a fresh preparation of the same medium as above, was added to each well in a volume. of 0.25 ml/well. The resulting cell suspension mixtures were incubated in a 5 v/v % CO2 incubator at 37° C. for six days while replacing the media with a fresh preparation of α-MEM medium containing 1×10^9M 1α, 25-dihydroxy vitamin D3 and 10 v/v % fetal calf serum.
After completion of the culture, the supernatants were removed, and the cells in each well were fixed with formalin, and treated in the usual manner with “NAPHTHOL AS-MS PHOSPHATE” and “RED VIOLET LB SALT”, which are commercialized by Sigma Chemical Company, ST. […]

[5] = one mg/kg body weight/shot, two times a week (control 2), ovary-extracted mice
[6] = oral 0.01 g/kg body weight/shot, once daily, five shots a week, ovary-extracted mice
[7] = oral 0.1 g/kg body weight/shot, once daily, five shots a week, ovary-extracted mice
[8] = oral 1 g/kg body weight/shot, once daily, five shots a week, ovary-extracted mice

OC[C@H]1O[C@H](O[C@H]2[C@H](O)[C@@H](O)C(O)O[C@@H]2CO)[C@H](O)[C@@H](O)[C@@H]1O (mixture of isomers) [maltose, reference compound]
Bone content compared with the control groups (ovaries extracted, PBS) [1]: no significant difference

C[C@]12CC[C@@H]3c4ccc(O)cc4CC[C@H]3[C@@H]1CC[C@@H]2O [Estradiol, estradiol, reference compound]
Dry weight of extracted tibia [2, 5]: 119.9 ± 7.5 mg
Dry weight of extracted tibia / Body weight [2, 5]: 3.520 ± 0.240 mg/g

OC[C@H]1O[C@H](O[C@H]2O[C@H](CO)[C@@H](O)[C@H](O)[C@H]2O)[C@H](O)[C@@H](O)[C@@H]1O [Trehalose, trehalose]
Death at the maximum dose (ddY mice; ip): no mouse died
Death at the maximum dose (ddY mice; po): no mouse died
Dry weight of extracted tibia ([1]; 0.1 w/w % trehalose solution): 84.2 ± 6.9 mg
Dry weight of extracted tibia / Body weight ([1]; 0.1 w/w % trehalose solution): 2.639 ± 0.213 mg/g
Dry weight of extracted tibia ([1]; 1 w/w % trehalose solution): 86.9 ± 6.1 mg
Dry weight of extracted tibia / Body weight ([1]; 1 w/w % trehalose solution): 2.716 ± 0.191 mg/g
Dry weight of extracted tibia ([1]; 10 w/w % trehalose injection): 89.7 ± 5.5 mg
Dry weight of extracted tibia / Body weight ([1]; 10 w/w % trehalose injection): 2.777 ± 0.170 mg/g
Trehalose concentration at which the inhibitory effect on the lowering of bone content was found ([1]; intravenous, about 5 ml/kg body weight/shot): ~1 w/w %
Abnormality induced by the administration ([1]; intravenous, observation throughout the experiment): No abnormality
Reduction of the trabecula in cancellous bone and expansion of the cavity of marrow (tibia, electron microscope x24, FIG. 4) ([1]; one w/w % trehalose solution, intravenous 5 ml/kg body weight/shot): clearly inhibited
Number of osteoclasts relative to control 2 (times higher) (osteoclasts [3]): about 2 times
Dry weight of extracted tibia [2, 6]: 83.6 ± 7.0 mg
Dry weight of extracted tibia / Body weight [2, 6]: 2.643 ± 0.195 mg/g
Dry weight of extracted tibia [2, 7]: 85.0 ± 5.2 mg
Dry weight of extracted tibia / Body weight [2, 7]: 2.723 ± 0.163 mg/g
Reduction of trabecula in cancellous bone and expansion of the cavity of marrow (tibia, electron microscope x24, FIG. 1) ([2]; oral 0.1 g/kg body weight/shot, ovary-extracted mice): clearly inhibited
Dry weight of extracted tibia [2, 8]: 88.4 ± 6.4 mg
Dry weight of extracted tibia / Body weight [2, 8]: 2.762 ± 0.172 mg/g
Abnormality induced by the administration ([2]; oral, observation throughout the experiment): No abnormality
Dose at which the inhibitory effect on the lowering of the bone content was found ([2]; oral, ovary-extracted mice): about 0.1 g/kg body weight/shot
Number of osteoclasts relative to control 2 (times higher) (osteoclasts [4]): about 2 times

OC[C@@H](O)[C@@H](O)[C@H](O)[C@@H](O)CO [sorbitol, reference compound]
Bone content compared with the control groups (ovaries extracted, PBS) [1]: no significant difference

OC[C@H]1O[C@@](CO)(O[C@H]2O[C@H](CO)[C@@H](O)[C@H](O)[C@H]2O)[C@@H](O)[C@@H]1O [sucrose, reference compound]
Bone content compared with the control group (ovaries extracted, distilled water) ([2]; administered in place of trehalose, data not shown): no significant difference

OC[C@@H](O)[C@H](O)[C@@H](O)CO [xylitol, reference compound]
Bone content compared with the control groups (ovaries extracted, PBS) [1]: no significant difference

— patent publication US6440446B1, “Agent for anti-osteoporosis” (Kabushiki Kaisha Hayashibara Seibutsu Kagaku Kenkyujo, priority 1998, dated 2002)
